Measured values as given in PMC8580050, “Improvement of the antimicrobial potency, pharmacokinetic and pharmacodynamic properties of albicidin by incorporation of nitrogen atoms” (Chemical Science, 2021).
pIC50: −log10 of the molar value. Converted amounts (≈) assume the structure as drawn.

Assays:
[1] = test system: E. coli (ciprofloxacin resistant clinical isolate); experiment: microbe, parasite or virus in culture; type: cell-based, Escherichia coli; conditions: Escherichia coli
Description: (§1) 1.1.1 In vitro experiments
(§2) Determination of Minimal inhibitory concentrations (MIC)
(§3) Approved Standard M07-A9.1
(§4) CFU mL-1. […] Albicidin and […]
(§5) and serially diluted in DMSO (100%). […]
(§6) in 0.1 N HCL, respectively.
(§7) One row of each well plate served as a […]
(§8) sterility control (only MHB II-media). […]
(§9) adding 5 µL DMSO to several wells. […]
(§10) for growth inhibition by naked eye.
(§11) Microorganisms and Cell Cultures (DSMZ): […]
(§12) Dr. Werner (Robert-Koch-Institut, Wernigerode, Germany): […]

[2] = test system: E. coli (ciprofloxacin susceptible clinical isolate); experiment: MIC, extended panel; type: cell-based; conditions: Escherichia coli
Description: as §1, §2, §3, §4, §5, §6, §7, §8, §9, §10, §11, §12

[3] = test system: Salmonella Kentucky (ciprofloxacin susceptible clinical isolate); experiment: MIC, extended panel; type: cell-based; conditions: Salmonella enterica
Description: as §1, §2, §3, §4, §5, §6, §7, §8, §9, §10, §11, §12

[4] = test system: K. pneumoniae (ciprofloxacin resistant clinical isolate); experiment: microbe, parasite or virus in culture; type: cell-based; conditions: Klebsiella pneumoniae
Description: as §1, §2, §3, §4, §5, §6, §7, §8, §9, §10, §11, §12

[5] = test system: Salmonella Kentucky (ciprofloxacin resistant clinical isolate); experiment: microbe, parasite or virus in culture; type: cell-based; conditions: Salmonella enterica
Description: as §1, §2, §3, §4, §5, §6, §7, §8, §9, §10, §11, §12

[6] = test system: K. pneumoniae (ciprofloxacin susceptible clinical isolate); experiment: MIC, extended panel; type: cell-based, Klebsiella pneumoniae; conditions: Klebsiella pneumoniae
Description: as §1, §2, §3, §4, §5, §6, §7, §8, §9, §10, §11, §12

[7] = test system: S. aureus (ciprofloxacin resistant clinical isolate); experiment: microbe, parasite or virus in culture; type: cell-based, Staphylococcus aureus; conditions: Staphylococcus aureus
Description: as §1, §2, §3, §4, §5, §6, §7, §8, §9, §10, §11, §12
(§13) for the following 11 pathogenic isolates: […]

[8] = test system: S. aureus (ciprofloxacin susceptible clinical isolate); experiment: MIC, extended panel; type: cell-based; conditions: Staphylococcus aureus
Description: as §1, §2, §3, §4, §5, §6, §7, §8, §9, §10, §11, §12, §13

[9] = test system: A. baumannii (ciprofloxacin resistant isolate); experiment: microbe, parasite or virus in culture; type: cell-based, Acinetobacter baumannii; conditions: Acinetobacter baumannii
Description: as §1, §2, §3, §4, §5, §6, §7, §8, §9, §10, §11, §12, §13

[10] = test system: E. faecium (ciprofloxacin resistant clinical isolate); experiment: microbe, parasite or virus in culture; type: cell-based; conditions: Enterococcus faecium
Description: as §1, §2, §3, §4, §5, §6, §7, §8, §9, §10, §11, §12, §13

[11] = test system: P. aeruginosa (ciprofloxacin resistant clinical isolate); experiment: microbe, parasite or virus in culture; type: cell-based; conditions: Pseudomonas aeruginosa
Description: as §1, §2, §3, §4, §5, §6, §7, §8, §9, §10, §11, §12, §13

[12] = test system: P. aeruginosa (ciprofloxacin susceptible clinical isolate); experiment: MIC, extended panel; type: cell-based, Pseudomonas aeruginosa; conditions: Pseudomonas aeruginosa
Description: as §1, §2, §3, §4, §5, §6, §7, §8, §9, §10, §11, §12, §13

in vitro = conditions: plasma, pH 7.4
Description: Determination of plasma stability
Human and murine plasma aliquots (Sigma-Aldrich, Taufkirchen, Germany) were thawed and subsequently centrifuged at 3000 rpm for 10 min at 4°C. Resulting supernatant was diluted in the same volume of phosphate buffer (pH 7.4) to obtain a plasma concentration of 50% (v/v). Stock solutions of […]
concentration of 20 µM (5% DMSO). Following incubation at 37°C ice-cold methanol containing 30% […]
were centrifuged at 4000 rpm for 20 min at 4°C and 100 µL of supernatant were directly transferred to a fresh MS-vial. Samples were analyzed by LC/MS-MS experiments. Quantification of remaining compounds was performed by an external calibration curve of standard solutions in the range of […]

DNA gyrase = conditions: read-out: half maximum inhibitory concentration (IC50); cited from earlier work
physchem = conditions: 20 °C, kinetic from dmso stock
[13] = test system: E. faecium (ciprofloxacin susceptible clinical isolate); experiment: microbe, parasite or virus in culture; conditions: Enterococcus faecium
E. coli DSM 1116 = experiment: MIC determination (broth microdilution); type: cell-based, Escherichia coli; conditions: Escherichia coli, DSM1116
Description: as §1, §2, §3, §4, §5, §6, §7, §8, §9, §10, §11

S. Typhimurium TA100 = experiment: MIC determination (broth microdilution); type: cell-based, Salmonella typhimurium; conditions: Salmonella enterica, TYPHIMURIUM
Description: as §1, §2, §3, §4, §5, §6, §7, §8, §9, §10, §11

B. subtilis DSM 10 = experiment: MIC determination (broth microdilution); type: cell-based; conditions: Bacillus subtilis, DSM10
Description: as §1, §2, §3, §4, §5, §6, §7, §8, §9, §10, §11

E. coli BW25113 = experiment: MIC determination (broth microdilution); type: cell-based; conditions: Escherichia coli
Description: as §1, §2, §3, §4, §5, §6, §7, §8, §9, §10, §11

M. luteus DSM1790 = experiment: MIC determination (broth microdilution); type: cell-based, Micrococcus luteus; conditions: Micrococcus luteus, DSM1790
Description: as §1, §2, §3, §4, §5, §6, §7, §8, §9, §10, §11

M. phlei DSM 750 = experiment: MIC determination (broth microdilution); type: cell-based, Mycobacterium phlei; conditions: Mycolicibacterium phlei, DSM750
Description: as §1, §2, §3, §4, §5, §6, §7, §8, §9, §10

[14] = test system: E. coli DSM 1116 + 50% Human Serum; experiment: MIC determination in presence of 50% human serum; type: cell-based; conditions: Escherichia coli, DSM1116
From the text: This investigation was completed by assessment of the antibacterial activity in presence of human plasma (50%) (Table 1), since high plasma protein binding can severely impair antibacterial activity and thus efficacy.
as §1, §2, §3, §4, §5, §6, §7, §8, §9, §10, §11

E. coli DNA gyrase = biological target: T1, E. coli DNA gyrase (Escherichia coli, UniProt P0AES4+P0AES6); experiment: E. coli gyrase supercoiling inhibition assay; type: biochemical; design: key: ↑: for stronger inhibition; ≈: for equal inhibition; ↓: for diminished inhibition compared to albicidin 1; conditions: constant concentration of 45 nM, compared to albicidin 1
T1 construct: purchased inspiralis Limited, Norwich, UK
Description: Escherichia coli Gyrase Supercoiling Inhibition Assay
loaded on an agarose gel.
2-15. […] Addition of DNA
All derivatives were tested at a concentration of […]

[15] = Cell proliferation assay (HepG2 cells); conditions: human
Description: (§14) Cell proliferation assay (HepG2 cells)
(§15) The assay was performed by the company Eurofins (Taiwan). Cytotoxicity was representatively
(§16) according to a protocol by Ansar et al.27 This is in line with previously published cytotoxicity data on
(§17) GI = growth inhibition; TGI = total growth inhibition; LC = lethal concentration

HepG2 cells = experiment: in vitro; conditions: human
Description: as §14, §15, §16, §17

Formulation studies = type: physicochemical; conditions: DMSO/PEG400 (10 : 90), 10 mg ml-1
Description: of preclinical formulations in a final concentration of 10 mg ml-1. All experimental procedures were carried out in cooperation with Pharmacelsus GmbH (Saarbrucken, Germany) according to Table S6.
1.1.2 Tolerability assessment and pharmacokinetic study
In vivo tolerability studies as well as determinations of pharmacokinetic parameters were carried out in cooperation with Pharmacelsus GmbH (Saarbrucken, Germany).
For tolerability assessment adult male CD-1 mice (RjOrl:SWISS, 7 weeks old) were purchased from Janvier Labs (France). For pharmacokinetic studies 6 weeks old, male CD-1 mice (RjOrl:SWISS, Janvier Labs, France) were used. The animals were allowed to acclimatize for at least seven days before the start of experiments. Housing was realized in a temperature-controlled room (20-24°C) and mice were exposed to a 12h light/dark cycle. Mice had access to food and water ad libitum throughout the study.
All experimental procedures were approved by and conducted in accordance with the regulations of local Animal Welfare authorities (Landesamt für Gesundheit und Verbraucherschutz, Abteilung Lebensmittel- und Veterinärwesen, Saarbrücken, Germany).

in vivo = conditions: male, CD-1, mouse, whole blood, iv, 50 mg/kg
[16] = Pharmacokinetic study, i.v.; conditions: 50 mg kg^−1 i.v., after 24 h

T1 sequence (P0AES4 whole entry, one chain of several): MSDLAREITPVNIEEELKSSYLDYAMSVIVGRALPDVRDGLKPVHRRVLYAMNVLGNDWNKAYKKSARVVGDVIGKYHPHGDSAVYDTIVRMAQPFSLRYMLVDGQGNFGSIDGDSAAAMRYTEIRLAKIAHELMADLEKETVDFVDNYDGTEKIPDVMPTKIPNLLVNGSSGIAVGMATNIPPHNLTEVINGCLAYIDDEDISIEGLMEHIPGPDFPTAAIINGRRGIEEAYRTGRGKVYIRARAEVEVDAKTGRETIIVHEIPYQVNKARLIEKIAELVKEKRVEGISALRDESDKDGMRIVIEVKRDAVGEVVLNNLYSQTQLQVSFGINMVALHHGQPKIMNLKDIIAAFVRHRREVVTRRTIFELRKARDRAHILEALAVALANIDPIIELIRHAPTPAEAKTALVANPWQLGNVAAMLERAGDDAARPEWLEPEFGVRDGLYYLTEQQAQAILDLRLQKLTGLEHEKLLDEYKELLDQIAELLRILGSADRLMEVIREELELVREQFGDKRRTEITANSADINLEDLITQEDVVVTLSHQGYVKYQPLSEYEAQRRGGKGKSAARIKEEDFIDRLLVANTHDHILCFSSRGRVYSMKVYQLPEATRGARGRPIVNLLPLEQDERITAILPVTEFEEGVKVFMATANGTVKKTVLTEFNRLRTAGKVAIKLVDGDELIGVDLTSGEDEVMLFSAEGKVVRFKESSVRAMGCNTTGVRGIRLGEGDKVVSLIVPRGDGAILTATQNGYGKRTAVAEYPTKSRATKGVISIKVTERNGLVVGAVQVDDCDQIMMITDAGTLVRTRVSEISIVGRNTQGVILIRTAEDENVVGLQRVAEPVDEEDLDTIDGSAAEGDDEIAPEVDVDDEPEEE

Row | Structure (SMILES) | MIC [1] [µg/mL] | MIC [2] [µg/mL] | MIC [3] [µg/mL] | MIC [4] [µg/mL] | MIC [5] [µg/mL] | MIC [6] [µg/mL] | MIC [7] [µg/mL] | MIC [8] [µg/mL] | MIC [9] [µg/mL] | MIC [10] [µg/mL] | MIC [11] [µg/mL] | MIC [12] [µg/mL] | half-life at 20 µM (in vitro; human) [h] | half-life at 20 µM (in vitro; mouse) [h] | MIC [13] [µg/mL] | further results
1 | COc1c(NC(=O)c2ccc(NC(=O)c3ccc(NC(=O)[C@H](CC#N)NC(=O)c4ccc(NC(=O)/C(C)=C/c5ccc(O)cc5)cc4)cc3)c(OC)c2O)ccc(C(=O)O)c1O [Compound 1, albicidin] | 0.125 (≈ 0.148 µM) | 0.031 (≈ 0.0368 µM) | 0.063 (≈ 0.0747 µM) | ≥ 128 | 0.25 (≈ 0.297 µM) | ≥ 128 | 4 (≈ 4.75 µM) | 2 (≈ 2.37 µM) | 2 (≈ 2.37 µM) | 16 (≈ 19 µM) | 2 (≈ 2.37 µM) | 1 (≈ 1.19 µM) | 1 | 0.5 | 0.25 (≈ 0.297 µM) | pIC50 (DNA gyrase): 7.40; solubility at 20 h (physchem; pH 7.4, aqueous with cosolvent or surfactant or cyclodextrin): 5.53 µg/mL (≈ 6.56 µM); solubility kinetic at 20 h (physchem; pH 7.5, aqueous with cosolvent or surfactant or cyclodextrin): 5.53 µg/mL (≈ 6.56 µM)
2 | COc1c(NC(=O)c2ccc(NC(=O)c3ccc(NC(=O)[C@H](Cc4c[nH]nn4)NC(=O)c4ccc(NC(=O)/C(C)=C/c5ccc(O)cc5)cc4)cc3)c(OC)c2O)ccc(C(=O)O)c1O [Compound 2, AzaHis-albicidin] | 0.063 (≈ 0.0712 µM) | 0.016 (≈ 0.0181 µM) | 0.063 (≈ 0.0712 µM) | ≥ 128 | 0.125 (≈ 0.141 µM) | 16 (≈ 18.1 µM) | 0.5 (≈ 0.565 µM) | 0.25 (≈ 0.283 µM) | 2 (≈ 2.26 µM) | 64 (≈ 72.3 µM) | 8 (≈ 9.04 µM) | 4 (≈ 4.52 µM) | > 4 | 1.58 | 0.25 (≈ 0.283 µM) | MIC (E. coli DSM 1116): 0.016 µg/mL (≈ 0.0181 µM); MIC (S. Typhimurium TA100): 0.016 µg/mL (≈ 0.0181 µM); MIC (B. subtilis DSM 10): 0.125 µg/mL (≈ 0.141 µM); MIC (E. coli BW25113): 0.016 µg/mL (≈ 0.0181 µM); MIC (M. luteus DSM1790): 1 µg/mL (≈ 1.13 µM); MIC (M. phlei DSM 750): 2 µg/mL (≈ 2.26 µM); MIC [14]: 2 µg/mL; E. coli gyrase inhibition (E. coli DNA gyrase): ≈; CC50 [15]: > 16 µM; GI50 [15]: > 16 µM; TGI (total growth inhibition) (HepG2 cells): > 16 µM; appearance in formulation (Formulation studies): clear solution; half-life (in vivo): 10.1 h; plasma level as multiple of MIC for E. coli [16]: higher than 5 times MIC
